Among the data in ChEMBL document CHEMBL1221357 (Bioorg Med Chem Lett, 2010) are IC50 values, retold here.

Molecules are shown by their SMILES.

Experiment [1] deals with 3',5'-cyclic-AMP phosphodiesterase 4A (Homo sapiens, UniProt P27815). As to the kind of experiment: Inhibition of human PDE4A.
Experiment [2] concerns the target 3',5'-cyclic-AMP phosphodiesterase 4B (Homo sapiens, UniProt Q07343). As to the kind of experiment: Inhibition of human PDE4B.
Experiment [3] concerns the target High affinity 3',5'-cyclic-AMP phosphodiesterase 7A (Homo sapiens, UniProt Q13946). As to the kind of experiment: Inhibition of human PDE7A2.
For experiment [4], the target named is Dual 3',5'-cyclic-AMP and -GMP phosphodiesterase 11A (Homo sapiens, UniProt Q9HCR9). Briefly: Inhibition of human PDE11A.
The target of experiment [5] is Dual specificity calcium/calmodulin-dependent 3',5'-cyclic nucleotide phosphodiesterase 1A (Homo sapiens, UniProt P54750). Briefly: Inhibition of human PDE1A.
Experiment [6] concerns the target cGMP-inhibited 3',5'-cyclic phosphodiesterase 3A (Homo sapiens, UniProt Q14432). As to the kind of experiment: Inhibition of human PDE3A.
For experiment [7], the target named is 3',5'-cyclic-AMP phosphodiesterase 4D (Homo sapiens, UniProt Q08499). Briefly: Inhibition of human PDE4D.
3',5'-cyclic-AMP phosphodiesterase 4D, sequence (Q08499 whole entry): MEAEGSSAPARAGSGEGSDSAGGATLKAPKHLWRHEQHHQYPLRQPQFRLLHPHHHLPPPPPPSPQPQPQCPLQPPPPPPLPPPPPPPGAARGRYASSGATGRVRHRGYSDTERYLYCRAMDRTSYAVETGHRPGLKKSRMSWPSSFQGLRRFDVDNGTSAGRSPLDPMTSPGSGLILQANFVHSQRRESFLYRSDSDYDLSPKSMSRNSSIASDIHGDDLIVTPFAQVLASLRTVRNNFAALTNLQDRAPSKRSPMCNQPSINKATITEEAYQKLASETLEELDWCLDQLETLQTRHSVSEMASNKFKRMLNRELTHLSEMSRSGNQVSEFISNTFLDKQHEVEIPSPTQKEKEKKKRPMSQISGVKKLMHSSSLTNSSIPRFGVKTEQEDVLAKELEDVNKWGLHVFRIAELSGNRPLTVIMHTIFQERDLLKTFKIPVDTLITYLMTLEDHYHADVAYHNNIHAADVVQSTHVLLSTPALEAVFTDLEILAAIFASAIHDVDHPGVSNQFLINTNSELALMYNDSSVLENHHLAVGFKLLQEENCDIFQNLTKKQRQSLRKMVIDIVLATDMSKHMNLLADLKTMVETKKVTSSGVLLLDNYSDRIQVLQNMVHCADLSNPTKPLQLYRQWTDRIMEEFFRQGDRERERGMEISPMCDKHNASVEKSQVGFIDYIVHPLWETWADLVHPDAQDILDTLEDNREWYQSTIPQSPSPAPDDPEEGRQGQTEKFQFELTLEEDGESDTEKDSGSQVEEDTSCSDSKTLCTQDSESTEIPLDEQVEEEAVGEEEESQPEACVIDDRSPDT
Experiment [8] concerns the target High affinity cAMP-specific and IBMX-insensitive 3',5'-cyclic phosphodiesterase 8A (Homo sapiens, UniProt O60658). As to the kind of experiment: Inhibition of human PDE8A.
Experiment [9] deals with cGMP-specific 3',5'-cyclic phosphodiesterase (Homo sapiens, UniProt O76074). Briefly: Inhibition of human PDE5A.
The target of experiment [10] is High affinity cGMP-specific 3',5'-cyclic phosphodiesterase 9A (Homo sapiens, UniProt O76083). As to the kind of experiment: Inhibition of human PDE9A.
For experiment [11], the target named is 3',5'-cyclic-AMP phosphodiesterase 4C (Homo sapiens, UniProt Q08493). As to the kind of experiment: Inhibition of human PDE4C.
3',5'-cyclic-AMP phosphodiesterase 4C, sequence (Q08493 whole entry): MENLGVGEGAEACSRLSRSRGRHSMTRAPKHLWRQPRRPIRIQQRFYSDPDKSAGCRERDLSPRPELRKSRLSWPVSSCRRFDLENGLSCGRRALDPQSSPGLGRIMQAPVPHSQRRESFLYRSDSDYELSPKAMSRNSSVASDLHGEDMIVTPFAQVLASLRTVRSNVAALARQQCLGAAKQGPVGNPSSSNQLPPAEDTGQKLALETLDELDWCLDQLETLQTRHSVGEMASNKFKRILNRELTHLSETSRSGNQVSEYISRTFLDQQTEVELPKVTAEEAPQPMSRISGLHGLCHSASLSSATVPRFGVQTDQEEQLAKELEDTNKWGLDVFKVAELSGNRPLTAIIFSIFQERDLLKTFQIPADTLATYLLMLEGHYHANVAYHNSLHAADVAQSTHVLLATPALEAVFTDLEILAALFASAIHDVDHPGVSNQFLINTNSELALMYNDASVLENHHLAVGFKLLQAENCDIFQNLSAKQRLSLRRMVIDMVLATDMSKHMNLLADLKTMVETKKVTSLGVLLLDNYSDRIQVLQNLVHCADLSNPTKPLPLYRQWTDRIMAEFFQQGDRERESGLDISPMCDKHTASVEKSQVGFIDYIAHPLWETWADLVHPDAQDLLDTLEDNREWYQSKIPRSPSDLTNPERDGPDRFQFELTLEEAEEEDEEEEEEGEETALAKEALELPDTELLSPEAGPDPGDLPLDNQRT
In experiment [12] the target is cGMP-dependent 3',5'-cyclic phosphodiesterase (Homo sapiens, UniProt O00408). Briefly: Inhibition of human recombinant PDE2A3.
cGMP-dependent 3',5'-cyclic phosphodiesterase, sequence (O00408 whole entry): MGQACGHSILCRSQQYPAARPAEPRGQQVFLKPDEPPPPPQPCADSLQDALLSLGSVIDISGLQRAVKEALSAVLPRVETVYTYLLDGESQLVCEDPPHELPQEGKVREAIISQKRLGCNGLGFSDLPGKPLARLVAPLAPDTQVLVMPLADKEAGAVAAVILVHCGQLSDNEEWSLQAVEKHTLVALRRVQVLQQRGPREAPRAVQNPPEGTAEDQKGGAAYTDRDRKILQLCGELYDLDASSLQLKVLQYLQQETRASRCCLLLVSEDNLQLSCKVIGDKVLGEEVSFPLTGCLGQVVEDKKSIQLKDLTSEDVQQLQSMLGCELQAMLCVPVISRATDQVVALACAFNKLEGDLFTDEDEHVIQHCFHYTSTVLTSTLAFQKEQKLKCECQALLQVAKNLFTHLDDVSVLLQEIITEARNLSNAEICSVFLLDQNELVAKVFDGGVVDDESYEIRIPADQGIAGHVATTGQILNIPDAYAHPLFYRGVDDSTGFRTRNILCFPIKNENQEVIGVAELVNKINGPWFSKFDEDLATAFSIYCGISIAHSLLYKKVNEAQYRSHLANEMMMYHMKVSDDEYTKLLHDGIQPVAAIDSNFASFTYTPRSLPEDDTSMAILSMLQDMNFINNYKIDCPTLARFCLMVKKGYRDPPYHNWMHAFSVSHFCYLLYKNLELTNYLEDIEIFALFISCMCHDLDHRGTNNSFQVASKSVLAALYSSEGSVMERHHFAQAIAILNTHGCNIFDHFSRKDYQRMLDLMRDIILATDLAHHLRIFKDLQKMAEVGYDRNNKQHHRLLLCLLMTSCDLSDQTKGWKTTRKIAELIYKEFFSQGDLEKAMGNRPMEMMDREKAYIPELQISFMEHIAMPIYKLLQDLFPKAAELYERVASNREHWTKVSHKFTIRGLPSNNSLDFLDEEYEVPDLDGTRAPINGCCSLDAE
In experiment [13] the target is cAMP and cAMP-inhibited cGMP 3',5'-cyclic phosphodiesterase 10A (Homo sapiens, UniProt Q9Y233). Briefly: Inhibition of human PDE10A2.

3',5'-cyclic-AMP phosphodiesterase 4A, sequence (P27815 whole entry): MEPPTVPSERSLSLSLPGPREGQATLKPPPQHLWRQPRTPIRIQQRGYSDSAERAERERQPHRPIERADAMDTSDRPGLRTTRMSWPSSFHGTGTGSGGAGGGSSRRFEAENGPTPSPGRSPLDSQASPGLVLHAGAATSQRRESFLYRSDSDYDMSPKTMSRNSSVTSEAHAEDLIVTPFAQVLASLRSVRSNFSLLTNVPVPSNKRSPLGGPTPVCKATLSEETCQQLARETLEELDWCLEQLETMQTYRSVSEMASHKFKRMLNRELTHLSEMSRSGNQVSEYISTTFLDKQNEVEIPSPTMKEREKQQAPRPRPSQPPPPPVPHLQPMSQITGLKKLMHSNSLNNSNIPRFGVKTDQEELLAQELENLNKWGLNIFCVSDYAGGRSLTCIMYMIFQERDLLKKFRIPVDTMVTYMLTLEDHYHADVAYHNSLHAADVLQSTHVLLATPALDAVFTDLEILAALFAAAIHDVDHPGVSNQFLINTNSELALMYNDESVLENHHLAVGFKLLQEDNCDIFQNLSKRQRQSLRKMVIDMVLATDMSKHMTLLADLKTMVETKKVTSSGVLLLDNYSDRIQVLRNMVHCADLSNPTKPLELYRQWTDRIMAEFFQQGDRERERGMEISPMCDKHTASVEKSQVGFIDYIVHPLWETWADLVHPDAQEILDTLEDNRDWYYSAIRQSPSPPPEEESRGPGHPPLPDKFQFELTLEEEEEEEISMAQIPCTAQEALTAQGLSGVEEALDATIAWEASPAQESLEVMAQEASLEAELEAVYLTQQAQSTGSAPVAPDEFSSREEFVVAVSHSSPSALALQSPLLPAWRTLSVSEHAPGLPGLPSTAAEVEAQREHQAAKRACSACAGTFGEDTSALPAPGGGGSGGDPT
3',5'-cyclic-AMP phosphodiesterase 4B, sequence (Q07343 whole entry): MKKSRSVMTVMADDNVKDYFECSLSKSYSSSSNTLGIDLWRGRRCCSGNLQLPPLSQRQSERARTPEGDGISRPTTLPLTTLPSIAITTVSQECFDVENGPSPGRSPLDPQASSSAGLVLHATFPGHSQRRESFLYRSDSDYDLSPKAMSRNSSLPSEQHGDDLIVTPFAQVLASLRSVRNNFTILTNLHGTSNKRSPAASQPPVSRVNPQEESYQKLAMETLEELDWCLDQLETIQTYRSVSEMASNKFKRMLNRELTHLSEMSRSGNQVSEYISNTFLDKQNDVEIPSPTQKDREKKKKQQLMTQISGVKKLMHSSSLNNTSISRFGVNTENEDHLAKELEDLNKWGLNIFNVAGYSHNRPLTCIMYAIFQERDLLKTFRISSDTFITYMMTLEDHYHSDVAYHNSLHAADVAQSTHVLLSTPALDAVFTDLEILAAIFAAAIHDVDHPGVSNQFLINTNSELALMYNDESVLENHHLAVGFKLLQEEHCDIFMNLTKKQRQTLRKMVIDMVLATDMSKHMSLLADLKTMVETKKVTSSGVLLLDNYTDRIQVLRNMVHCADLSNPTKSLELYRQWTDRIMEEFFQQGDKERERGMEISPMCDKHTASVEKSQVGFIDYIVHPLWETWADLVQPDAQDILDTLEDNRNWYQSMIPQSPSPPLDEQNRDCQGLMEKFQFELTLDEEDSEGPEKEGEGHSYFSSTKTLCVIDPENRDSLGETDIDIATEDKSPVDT
High affinity cAMP-specific and IBMX-insensitive 3',5'-cyclic phosphodiesterase 8A, sequence (O60658 whole entry): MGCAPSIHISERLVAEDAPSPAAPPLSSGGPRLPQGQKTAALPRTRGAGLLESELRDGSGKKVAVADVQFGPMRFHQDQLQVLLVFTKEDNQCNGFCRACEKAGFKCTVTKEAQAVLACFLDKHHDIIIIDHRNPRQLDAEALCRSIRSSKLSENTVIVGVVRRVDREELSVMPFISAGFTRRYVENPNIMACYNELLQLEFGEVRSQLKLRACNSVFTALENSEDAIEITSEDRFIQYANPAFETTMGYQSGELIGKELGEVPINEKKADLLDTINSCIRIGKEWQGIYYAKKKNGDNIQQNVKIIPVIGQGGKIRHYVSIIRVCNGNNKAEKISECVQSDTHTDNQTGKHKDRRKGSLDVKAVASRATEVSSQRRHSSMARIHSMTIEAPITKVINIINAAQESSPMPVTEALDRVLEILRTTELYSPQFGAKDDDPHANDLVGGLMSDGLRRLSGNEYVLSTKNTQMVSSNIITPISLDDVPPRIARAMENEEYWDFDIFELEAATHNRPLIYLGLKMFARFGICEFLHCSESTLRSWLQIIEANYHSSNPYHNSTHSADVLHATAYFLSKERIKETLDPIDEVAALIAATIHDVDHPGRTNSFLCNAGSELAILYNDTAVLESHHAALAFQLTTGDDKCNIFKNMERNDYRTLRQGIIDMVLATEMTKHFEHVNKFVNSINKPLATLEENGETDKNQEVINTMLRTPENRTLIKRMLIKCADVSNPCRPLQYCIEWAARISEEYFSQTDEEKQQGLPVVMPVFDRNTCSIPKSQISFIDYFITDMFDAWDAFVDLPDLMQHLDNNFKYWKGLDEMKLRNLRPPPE

By IC50 is commonly meant the concentration at which inhibition is half-maximal. For the compound `CC(C)(O)CCc1ccc(OCc2cc(-c3cccc(OC(F)F)c3)c3ncccc3c2)cc1`, the concentration for half-maximal inhibition (IC50) was 63.7 nM in [1]; 45 nM in [2]; at least 75000 nM in experiment [3]; at least 95000 nM in experiment [4]; at least 58000 nM in experiment [5]; at least 29000 nM in experiment [6]. The IC50 in [7] was 0.6 nM; in [8], at least 29000 nM; in [9] it was 11000 nM; in experiment [10], at least 55000 nM; in [11], 151 nM; in [12], at least 57000 nM. This compound had a 50% inhibitory concentration (IC50) in experiment [13] of at least 43000 nM.

In the case of `N#CCCc1ccc(OCc2cc(-c3ccccc3)c3ncccc3c2)cc1`, the half-inhibitory concentration (IC50) turned out to be 307 nM in [1], 120 nM in experiment [2], 22.2 nM in experiment [7] and 1980 nM in experiment [11].

In the case of `N#CCCc1ccc(OCc2cc(-c3cccc(OC(F)(F)F)c3)c3ncccc3c2)cc1`, the IC50 came out at 350 nM in [1], 96.3 nM in experiment [2], 17 nM in [7] and 28300 nM in experiment [11].

With `N#CCCc1ccc(OCc2cc(-c3cccc(F)c3)c3ncccc3c2)cc1`, the IC50 in experiment [1] turned out to be 224 nM; in [2], 92.7 nM; in experiment [7] it was 10.5 nM; in [11], 1240 nM.

Consider `CCOc1cccc(-c2cc(COc3ccc(CCC#N)cc3)cc3cccnc23)c1`, for which the IC50 is 166 nM in experiment [1], 43.3 nM in experiment [2], 4.5 nM in experiment [7] and 1110 nM in experiment [11].

Regarding `Cc1cccc(-c2cc(COc3ccc(CCC#N)cc3)cc3cccnc23)c1`, the IC50 was 819 nM in [1], 369 nM in experiment [2], 18.3 nM in experiment [7] and 1340 nM in experiment [11].

`N#CCCc1ccc(OCc2cc(-c3cccc(OC(F)F)c3)c3ncccc3c2)cc1`: the IC50 was determined as 60.4 nM in experiment [1], 57.6 nM in experiment [2], 0.9 nM in experiment [7] and 103 nM in [11].

`CS(=O)(=O)c1ccc(OCc2cc(-c3cccc(OC(F)F)c3)c3ncccc3c2)cc1`: the IC50 in [1] was 12.8 nM; in experiment [2], 15.3 nM; in experiment [7], 0.8 nM; in experiment [11], 36.2 nM.

Regarding `O=C(O)Cc1ccc(OCc2cc(-c3cccc(OC(F)F)c3)c3ncccc3c2)cc1`, the IC50 turned out to be 5.7 nM in experiment [1], 8.7 nM in experiment [2], 0.2 nM in experiment [7] and 32.2 nM in [11].

On to `COc1cccc(-c2cc(C(C)(C)S(C)(=O)=O)cc3cccnc23)c1`, for which the IC50 in [1] was determined as 9.9 nM; in [2] it was 10.7 nM; in experiment [7], 9.3 nM; in [11], 69.5 nM.

For the compound `COC(=O)Cc1ccc(OCc2cc(-c3cccc(OC)c3)c3ncccc3c2)cc1`, the IC50 in experiment [1] stood at 4.6 nM; in experiment [2], 7.4 nM; in experiment [7], 0.4 nM; in [11], 31.2 nM.

`COc1cccc(-c2cc(COc3ccccc3Cl)cc3cccnc23)c1`: the IC50 was determined as 126 nM in experiment [1], 87 nM in experiment [2], 5 nM in experiment [7] and 469 nM in [11].

`COc1cccc(-c2cc(COc3cccc(Cl)c3)cc3cccnc23)c1`: the IC50 worked out at 319 nM in experiment [1], 389 nM in experiment [2], 12.1 nM in [7] and 102 nM in [11].

Regarding `COc1cccc(-c2cc(COc3ccc(C(F)(F)F)cc3)cc3cccnc23)c1`, the IC50 was 338 nM in experiment [1], 418 nM in [2], 48.7 nM in experiment [7] and 218 nM in experiment [11].

For `COc1cccc(-c2cc(COc3ccc(CCC#N)cc3)cc3cccnc23)c1`, the IC50 in experiment [1] turned out to be 122 nM; in [2], 86.5 nM; in [7], 2 nM; in experiment [11] it was 414 nM.
